Patent US4293483A, “Derivatives of A-30912A nucleus” (priority 1980, dated 1981)
In brackets after ≈: the same amount, converted by molar mass. Several values for one entry are separate records, joined by “and”; a condition that tells them apart may be missing. Identical values can stand only once. Numbered stars: 1 amine (or outer) side, 2 acyl side, 3 side chain; on linkers, the order of the positions; unused ones are H or OH. Bridge positions count the residues as written; N and C are the ends. Square brackets hold non-standard residues; d marks the D form. Peptide text beside a SMILES is read from it. * marks the point of attachment. Orn(4R-OH,5R-OH) = O=C([C@H](C[C@@H](O)[C@@H](O)N[*:3])N[*:1])[*:2]; hTyr(3S-OH,4S-OH) = N[C@H](C(=O)O)[C@H](O)[C@@H](O)c1ccc(O)cc1; Pro(3S-OH,4S-Me) = C[C@H]1CN[C@H](C(=O)O)[C@H]1O; Hyp = O=C(O)[C@@H]1C[C@@H](O)CN1; Lauroyl = CCCCCCCCCCCC(=O)*; 4Abz = Nc1ccc(C(=O)O)cc1

Assays:
fungi = assay: Antifungal activity of the cyclic nucleus; format: cell-based; conditions: in words; nucleus lacking the linoleoyl side chain
[1] = tested on: Saccharomyces pastorianus X-52; assay: Agar plate disc diffusion test, zone of inhibition; format: cell-based; conditions: 1 mg/ml suspension in methanol, 7 mm disc, 24-48 hours at 25-37° C.
Description: (§3) ^(a) Compounds were tested as suspension in methanol.
(§4) were tested at a concentration of 1 mg/ml by a dipping 7mm disc into the
(§5) suspension and placing it on the agar surface. Incubation: 24-48 hours at

Neurospora Crassa 846 = assay: Agar plate disc diffusion test, zone of inhibition; format: cell-based; conditions: 1 mg/ml, 7 mm disc, * measurable zone of inhibition with regrowth of organism around disc
Description: as §3, §4, §5

[2] = tested on: Trichophyton mentagrophytes; assay: Agar plate disc diffusion test, zone of inhibition; format: cell-based
Description: as §3, §4, §5

Candida albicans A-26 [3] = assay: Agar plate disc diffusion test, zone of inhibition; format: cell-based; conditions: 1 mg/ml suspension in methanol, 7 mm disc, 24-48 hours at 25-37° C., no regrowth mark
Description: as §3, §4, §5

Candida albicans A-26 [4] = assay: Agar plate disc diffusion test, MIC per disc; format: cell-based; conditions: 0.01M sodium borate, pH 7.5, 24 hours at 30° C.
Description: *Compounds were suspended in 0.01M sodium borate solution, pH 7.5.
compounds were tested at 20 μg/disc at top level and at twofold
dilutions until end points were reached.

Candida albicans A26 = assay: Agar dilution assay; format: cell-based; conditions: A26
Description: (§1) Tables 4 and 5 give the results of the testing in vitro of the compounds of Examples 61-81 by agar-plate disc-diffusion methods. In Table 4 activity is measured by the size (diameter in mm.) of the observed zone of inhibition of the microorganism produced by the test compound. In Table 5, activity is measured by the minimal inhibitory concentration (MIC) of the substance (μg/disc) required to inhibit growth of the test organism. Table 6 gives the results of the testing in vitro of the N-(n-dodecanoyl)-p-aminobenzoyl derivative of A30912A nucleus (Formula III, R^1 is N-(dodecanoyl)-p-aminobenzoyl) against five strains of Candida albicans by the agar dilution method. In Table 6 activity is measured by the minimal inhibitory concentration (MIC) of the substance (μg/ml) required to inhibit the test organism.
(§2) In vitro activity of the N-(n-dodecanoyl)-p-aminobenzoyl (Example 64) and the N-(n-dodecanoyl)-5-amino-n-pentanoyl (Example 62) derivatives of A-30912A nucleus against 5 strains of Candida albicans by the agar dilution assay.

Candida albicans SBH 16 = assay: Agar dilution assay; format: cell-based; conditions: SBH16
Description: as §1, §2

Candida albicans SBH 28 = assay: Agar dilution assay; format: cell-based; conditions: SBH28
Description: as §1, §2

Candida albicans SBH 29 = assay: Agar dilution assay; format: cell-based; conditions: SBH29
Description: as §1, §2

Candida albicans SBH 31 = assay: Agar dilution assay; format: cell-based; conditions: SBH31
Description: as §1, §2

Candida albicans A-26 [5] = assay: Therapeutic activity against Candida albicans A-26 infection in mice; format: in vivo; conditions: A26, sc
Outline: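 Male SPF albino mice (18–20 g), X-irradiated (400 total) 24 h before, were infected intravenously. Graded subcutaneous doses (40, 20, 15, 10 mg/kg; PEG–water suspension) were given at 0, 4 and 24 h post infection, 6 mice per dose. ED50 is the dose curing 50%; otherwise the lowest dose with significant survival-time increase over controls.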

[6] = Toxicity in dog on intravenous administration; format: in vivo; conditions: 100 mg/kg per day for five days
[7] = Blood levels after oral administration in mice; conditions: mouse, in vivo, po, 416 mg/kg
Description: In this test, mice are gavaged with a dose of 416 mg/kg of the test compound suspended in 33% PEG 400-water. At time intervals, blood samples are taken from the orbital sinus and are assayed for antibiotic activity as follows: A 7 mm. disc containing 20 μl of whole blood is placed on agar seeded with Aspergillus montevidensis A35137. After 40 hours incubation at 30° C. zones of inhibition from the blood samples are compared to a standard obtained from the test compound, and the amount of compound in the blood sample is calculated.

In the case of `C[C@@H](O)[C@@H]1NC(=O)[C@H]([C@H](O)[C@@H](O)c2ccc(O)cc2)NC(=O)[C@@H]2C[C@@H](O)CN2C(=O)[C@H]([C@@H](C)O)NC(=O)[C@@H](N)C[C@@H](O)[C@@H](O)NC(=O)[C@@H]2[C@@H](O)[C@@H](C)CN2C1=O` [A-30912A nucleus] (H-[Orn(4R-OH,5R-OH)]T[Hyp][hTyr(3S-OH,4S-OH)]T[Pro(3S-OH,4S-Me)]; lactam 1-C), the antifungal activity (fungi) is reported as “substantially devoid of antifungal activity”.
For `CCCCCCCCCCCC(=O)Nc1ccc(C(=O)N[C@H]2C[C@@H](O)[C@@H](O)NC(=O)[C@@H]3[C@@H](O)[C@@H](C)CN3C(=O)[C@H]([C@@H](C)O)NC(=O)[C@H]([C@H](O)[C@@H](O)c3ccc(O)cc3)NC(=O)[C@@H]3C[C@@H](O)CN3C(=O)[C@H]([C@@H](C)O)NC2=O)cc1` [Example 64, N-(n-dodecanoyl)-p-aminobenzoyl derivative of A-30912A nucleus] ({Lauroyl-4Abz}-[Orn(4R-OH,5R-OH)]T[Hyp][hTyr(3S-OH,4S-OH)]T[Pro(3S-OH,4S-Me)]; lactam 1-C), the “Size of Zone of Inhibition” value ([1]; Saccharomyces pastorianus X-52) was 17 mm, the zone of inhibition at 1000 µg/mL ([1]; Saccharomyces pastorianus, X52, 48 h, read-out: Size of Zone of Inhibition, Saccharomyces pastorianus X-52) was 21 mm and the “Size of Zone of Inhibition (*)” value (Neurospora Crassa 846; Neurospora Crassa 846) was 35 mm. For the same compound, the zone of inhibition at 1000 µg/mL (Neurospora Crassa 846; Neurospora crassa, CRASSA846, read-out: Size of Zone of Inhibition (*), Neurospora Crassa 846) was 33 mm, the “Size of Zone of Inhibition (*)” value ([2]; 1 mg/ml, 7 mm disc, * measurable zone of inhibition with regrowth of organism around disc) was 56 mm and the zone of inhibition at 1000 µg/mL ([2]; read-out: Size of Zone of Inhibition (*), Trichophyton mentagrophytes, 1 mg/ml, 7 mm disc, * measurable zone of inhibition with regrowth of organism around disc) was 55 mm. The “Size of Zone of Inhibition” value (Candida albicans A-26 [3]) was 23 mm and 19 mm, the MIC (Candida albicans A-26 [4]) was 0.625 μg/disc and 1.25 μg/disc and the MIC (Candida albicans A26) was 0.312 µg/mL (≈ 0.284 µM). For the same compound, the MIC (Candida albicans SBH 16) was 0.625 µg/mL (≈ 0.569 µM), the MIC (Candida albicans SBH 28) was 0.625 µg/mL (≈ 0.569 µM) and the MIC (Candida albicans SBH 29) was 0.625 µg/mL (≈ 0.569 µM). The MIC (Candida albicans SBH 31) was 0.625 µg/mL (≈ 0.569 µM), the ED50 (Candida albicans A-26 [5]) was 15 mg/kg and the minimal effective dose (Candida albicans A-26 [5]; read-out: Lowest Active Dose, subcutaneous at 0, 4 and 24 hours post infection, lowest dose with significant anti-fungal effect) was 10 mg/kg. For the same compound, the SGPT levels [6] was “increased SGPT levels were observed”, the “outward signs of toxicity” value [6] was “no outward signs of toxicity” and the concentration at 4 h [7] was 830 ng/mL.
